Data reported in patent US10238642B2, “Methods for treating neurogenic orthostatic hypotension” (Theravance Biopharma R&D IP, LLC, priority 2016, dated 2019).
Where “and” joins values, the source holds several entries; their conditions need not be identical. Equal values may be shown once.

Assays:
other CYP450 enzymes = conditions: cited from earlier work
subjects with nOH = assay: Phase 2 clinical study in subjects with nOH, Part A (dose escalation); assay type: in vivo, human; parameters: key to Improvement in Seated SBP / Improvement in Time Standing / Improvement in Dizziness or Lightheadedness: ✓: Dose-related improvement observed relative to placebo
Source text: A Phase 2 clinical trial study is being conducted with 4-[2-(2,4,6-trifluorophenoxymethyl)phenyl]piperidine hydrochloride (“Study Compound”). The study is a multicenter, randomized, two-part, single-(Part A) and double-blind (Part B) study of the Study Compound versus placebo in subjects with nOH. An open-label, extension study to evaluate efficacy, safety and tolerability of the Study Compound will also be conducted (Part C). Part A follows a daily, single, escalating dose design starting with placebo on Day 1, followed by a dose of 1 mg of Study Compound on Day 2, and proceeding to escalating higher doses of Study Compound on a daily basis up to a maximum dose of 10 mg based on safety, tolerability, and determination of a pressor effect.
Subjects included in the study are male or female between the age of 40 and 80 years (inclusive) that have been diagnosed with symptomatic orthostatic hypotension due to pure autonomic failure, multiple system atrophy or Parkinson's disease (i.e., PD plus symptoms). At screening, autonomic function testing is conducted to confirm the diagnosis of autonomic dysfunction including sinus arrhythmia and the Valsalva maneuver.
In Part A, all doses (Study Compound and placebo) are administered in a single-blind manner (i.e., subject remains blinded) using an oral dosing solution. Up to 30 subjects are enrolled in Part A. Two days before the start of Part A, subjects are admitted to the clinical research center (CRC) where they remain during the entire dose escalation period. On Day 1, subjects receive a single dose of placebo. On Day 2, subjects receive a single 1 mg dose of Study Compound. On each subsequent day, subjects receive a single escalating dose of Study Compound as follows: 2.5 mg on Day 3; 5 mg on Day 4; 10 mg on Day 5 unless the following preset stopping criteria occur: • (a) a determination from the Investigator (in collaboration with the Sponsor) that administration of the subsequent next dose may pose a safety concern; • (b) SBP ≥180 mm or DBP ≥110 mm in the sitting position replicated 2 more times over an hour; • (c) intolerable side effects as determined by the Investigator; or • (d) subject receives maximum dose of study medication specified by the protocol.
Once the subject meets any of the above criteria, no further dose escalation is performed. Following a post-dosing observation day in the clinic, the subject is released from the CRC.
Seated and standing systolic blood pressure and completion of an Orthostatic Hypotension Symptom Assessment (OHSA) questionnaire are used to assess efficacy. For Part C, ambulatory blood pressure monitoring is used if available to measure blood pressure every 2 hours for 24-hour period before dosing on Day 1; and 72 to 48 hours before Day 15, Day 29, Day 85 and Day 169 clinic visits. Additionally, blood pressure is taken 20-30 mins before eating each morning about being supine (30 degree elevation) for at least 10 mins.
For both Parts A and B, the primary study endpoint is the difference from placebo of seated systolic blood pressure at 6 to 8 hours after drug administration. For Part A, placebo refers to the Day 1 visit, and the difference from placebo refers to the time-matched difference from each Study Compound dosing day (Days 2 through 5) relative to placebo dosing (Day 1). For Part C, primary study endpoint is improvement in the Likert scale for “dizziness, lightheadedness, feeling faint, or feeling like you might black out” (OHSA question 1) at week 4. […]

[1] = Differential scanning calorimetry; assay type: physicochemical; conditions: heated 10° C./min from 22° C. to 250° C.
Description: Differential scanning calorimetry (DSC) was performed using a TA Instruments Model Q-100 module with a Thermal Analyst controller. Data were collected and analyzed using TA Instruments Thermal Solutions software. A 2.8 mg sample of the crystalline hydrochloride salt of Example 8 was accurately weighed into a covered aluminum pan. After a 5 minute isothermal equilibration period at 22° C., the sample was heated using a linear heating ramp of 10° C./min from 22° C. to 250° C. A representative DSC thermograph is shown in FIG. 2 of U.S. Pat. No. 8,304,433 B2.

[2] = individual patient, Part A, oral solution up to 10 mg/day, vs placebo, preliminary

Row | SMILES | impact of inhibition of other CYP450 enzymes on metabolism (other CYP450 enzymes) | MSA patients showing improvement relative to placebo in at least one category (subjects with nOH; MSA patients completing Part A, 6 of 6) [%] | Improvement in Dizziness or Lightheadedness (subjects with nOH; [2]) | Improvement in Time Standing (subjects with nOH; [2]) | Improvement in Seated SBP (subjects with nOH; individual patient, Part A, oral solution up to 10 mg/day, vs placebo, preliminary, Hydrochloride) | patients showing an improvement relative to placebo in at least one of seated SBP, standing time, dizziness or lightheadedness (subjects with nOH; patients completing Part A, 10 of 12) [%] | thermal stability by DSC [1]
1 | CNCC[C@@H](Oc1ccccc1C)c1ccccc1 [atomoxetine] | not significantly impacted | – | – | – | – | – | –
2 | Cl.Fc1cc(F)c(OCc2ccccc2C2CCNCC2)c(F)c1 [4-[2-(2,4,6-Trifluorophenoxymethyl)phenyl]piperidine Hydrochloride] | – | 100 | ✓ | ✓ | ✓ (6×) and ✓^2 | 83 | excellent thermal stability
